EC50, AC50 and IC50 data for seven molecules are collected here from ChEMBL document CHEMBL1201862, “PubChem BioAssay data set” (2004).

The source made the active and inactive calls. Some results are limits rather than exact numbers.

Test [1] deals with Beta-galactosidase (Escherichia coli, UniProt Q8VNN2). Put plainly: PubChem AID 485352. Format: functional.
A short description of test [2]: LGR2 antagonists, dose response, cell-based, HEK293, CRE-luciferase reporter, cherry pick, set 2 (AID 743343).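 Note: transfected cells were stimulated with diluted bursicon conditioned medium after compound addition.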 Type of test: functional.
Test [3] addresses T1, Type-1 angiotensin II receptor (Homo sapiens, UniProt P30556).
T1 sequence (P30556 whole entry): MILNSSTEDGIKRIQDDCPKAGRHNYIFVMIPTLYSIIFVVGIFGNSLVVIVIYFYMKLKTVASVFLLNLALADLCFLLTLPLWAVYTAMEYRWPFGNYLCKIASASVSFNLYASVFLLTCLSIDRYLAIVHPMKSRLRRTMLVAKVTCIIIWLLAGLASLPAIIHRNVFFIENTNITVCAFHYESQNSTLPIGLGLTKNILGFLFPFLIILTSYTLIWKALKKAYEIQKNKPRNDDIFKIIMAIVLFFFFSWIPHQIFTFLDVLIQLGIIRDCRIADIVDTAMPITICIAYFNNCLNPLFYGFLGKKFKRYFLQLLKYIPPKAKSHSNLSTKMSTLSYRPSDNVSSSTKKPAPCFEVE
Put plainly: AT1 receptor antagonists, dose response, selectivity assay for APJ receptor antagonist project, cell-based, uHTS hits (AID 463214).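 Note: antagonist potency against angiotensin II stimulated AT1 response.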 Format: functional.

Test [4] in a line: A549 cell cytotoxicity, dose response, cytotoxicity control, plate reader, cherry-pick, antagonist series (AID 743412). Type of test: functional, cell-based.
Test [5] is described as follows: HepG2 cell cytotoxicity, dose response, cytotoxicity control, plate reader, cherry-pick, antagonist series (AID 743416). Format: functional, cell-based.
Test [6] can be described thus: inhibitors of SNCA 5'UTR-driven reporter translation, confirmation, H4 neuroglioma cells, luminescence (AID 1988). Format: functional, cell-based.
Test [7] in a line: Luminescence Cell-Based Dose Response HTS to Identify Inhibitors of 5'UTR Stem-Loop Driven Prion Protein mRNA Translation in H4 Neuroglioblastoma Cells. [Related pubchem assays: 1827 (Project Summary), 1813 (Primary HTS)]. Type of test: functional.
For test [8], the target named is Luciferin 4-monooxygenase (Photinus pyralis, UniProt P08659). As to the kind of experiment: firefly luciferase enzyme inhibitors, dose response, biochemical, luminescence (AID 1891).
Luciferin 4-monooxygenase, sequence (P08659 whole entry): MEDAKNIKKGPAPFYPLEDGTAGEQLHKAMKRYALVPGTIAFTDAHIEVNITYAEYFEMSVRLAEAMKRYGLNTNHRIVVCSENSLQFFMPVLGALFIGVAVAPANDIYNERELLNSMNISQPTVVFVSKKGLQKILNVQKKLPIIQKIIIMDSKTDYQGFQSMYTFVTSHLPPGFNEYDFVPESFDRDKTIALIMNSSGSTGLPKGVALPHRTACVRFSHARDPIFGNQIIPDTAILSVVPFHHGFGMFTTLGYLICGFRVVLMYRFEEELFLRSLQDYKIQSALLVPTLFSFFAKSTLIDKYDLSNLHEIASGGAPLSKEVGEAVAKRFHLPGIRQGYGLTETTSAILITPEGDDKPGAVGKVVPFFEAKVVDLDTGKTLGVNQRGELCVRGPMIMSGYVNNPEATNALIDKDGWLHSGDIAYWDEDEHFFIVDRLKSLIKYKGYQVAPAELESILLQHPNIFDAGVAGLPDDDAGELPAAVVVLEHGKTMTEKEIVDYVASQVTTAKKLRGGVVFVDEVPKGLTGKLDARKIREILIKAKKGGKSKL
Test [9] can be described thus: Luminescence Cell-Based Dose Confirmation HTS to Identify Inhibitors of Platelet Dense Granule Release. [Related pubchem assays: 1663 (Primary HTS), 1678 (Summary of Project)]. Type of test: functional.
Test [10] in a line: HEK293 cell cytotoxicity, dose response, cytotoxicity control, plate reader, cherry-picked samples (AID 743446). Format: functional, cell-based.
The target of test [11] is T2, Microphthalmia-associated transcription factor (Homo sapiens, UniProt O75030).
T2 sequence (O75030 whole entry): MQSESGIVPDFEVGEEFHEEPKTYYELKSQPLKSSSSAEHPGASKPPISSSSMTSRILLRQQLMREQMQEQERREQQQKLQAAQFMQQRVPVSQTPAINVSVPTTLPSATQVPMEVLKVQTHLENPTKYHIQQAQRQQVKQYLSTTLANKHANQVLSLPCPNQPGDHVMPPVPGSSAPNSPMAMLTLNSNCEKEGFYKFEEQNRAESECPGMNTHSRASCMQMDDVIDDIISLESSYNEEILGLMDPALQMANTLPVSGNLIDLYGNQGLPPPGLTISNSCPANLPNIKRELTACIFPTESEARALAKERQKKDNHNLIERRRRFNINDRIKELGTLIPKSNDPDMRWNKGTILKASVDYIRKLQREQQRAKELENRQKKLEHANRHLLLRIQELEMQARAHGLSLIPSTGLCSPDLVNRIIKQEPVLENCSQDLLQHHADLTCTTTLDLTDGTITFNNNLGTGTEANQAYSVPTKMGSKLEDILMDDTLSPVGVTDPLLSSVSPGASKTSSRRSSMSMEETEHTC
As to the kind of experiment: TRPM1 promoter luciferase signal decrease, dose response, MITF inhibitor project, cell-based, SK-MEL-5, cherry-picked, set 3 (AID 493073).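 Note: SK-MEL-5 melanoma cells with luciferase driven by the MITF target TRPM1 promoter.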 Type of test: functional.

In test [12] the test system is A-375. Put plainly: A375 melanoma cell viability reduction, dose response, counter-screen for MITF modulator project, cherry-pick samples, set 2 (AID 540335). Type of test: functional, cell-based. Particulars: Homo sapiens.
The nature of test [13]: MC4R antagonists, dose response, counter-screen for LGR2 antagonist project, cell-based, plate reader, cherry pick (AID 743444).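 Note: transfected HEK 293 cells stimulated with alpha-MSH peptide; potency of inhibitors of the alpha-MSH evoked signal.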 Format: functional.
The test system of test [14] is Escherichia coli. As to the kind of experiment: microbe, parasite or virus in culture.
Test [15] has as its system MDCK. As to the kind of experiment: antiviral activity against H1N1 influenza, dose response, cell-based, strain KY136 (AID 540257). Type of test: functional. Conditions: Canis lupus familiaris.
Test [16] has as its system MDCK. Put plainly: antiviral activity against H1N1 influenza, dose response, cell-based, strain KY180 (AID 540254). Format: functional. Conditions: Canis lupus familiaris.
Test [17] addresses Nonstructural protein 1 (Influenza A virus, UniProt Q194T2). Format: functional, Influenza A virus (A/California/07/2009(H1N1)).
The target of test [18] is Glycogen synthase kinase-3 beta (Homo sapiens, UniProt P49841). Put plainly: Inhibition of Human GSK-3 beta Activity Measured in Biochemical System Using Microfluidics - 2063-05_Inhibitor_Dose_DryPowder_Activity. [Related pubchem assays (depositor defined):AID2709].
Glycogen synthase kinase-3 beta, sequence (P49841 whole entry): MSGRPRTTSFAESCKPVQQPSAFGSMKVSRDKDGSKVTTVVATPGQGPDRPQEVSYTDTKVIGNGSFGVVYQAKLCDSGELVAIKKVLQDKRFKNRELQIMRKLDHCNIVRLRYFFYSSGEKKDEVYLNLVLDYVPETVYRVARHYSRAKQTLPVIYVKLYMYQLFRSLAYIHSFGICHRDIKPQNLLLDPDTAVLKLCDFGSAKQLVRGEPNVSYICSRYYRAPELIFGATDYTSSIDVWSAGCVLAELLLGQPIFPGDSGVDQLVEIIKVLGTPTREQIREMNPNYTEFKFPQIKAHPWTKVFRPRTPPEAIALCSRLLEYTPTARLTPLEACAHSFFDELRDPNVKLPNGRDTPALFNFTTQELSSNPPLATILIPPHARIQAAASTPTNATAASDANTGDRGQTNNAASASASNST
Test [19] deals with Glycogen synthase kinase-3 alpha (Homo sapiens, UniProt P49840). Put plainly: Inhibition of Human GSK-3 alpha Activity Measured in Biochemical System Using Microfluidics - 2063-06_Inhibitor_Dose_DryPowder_Activity. [Related pubchem assays (depositor defined):AID2709].
Glycogen synthase kinase-3 alpha, sequence (P49840 whole entry): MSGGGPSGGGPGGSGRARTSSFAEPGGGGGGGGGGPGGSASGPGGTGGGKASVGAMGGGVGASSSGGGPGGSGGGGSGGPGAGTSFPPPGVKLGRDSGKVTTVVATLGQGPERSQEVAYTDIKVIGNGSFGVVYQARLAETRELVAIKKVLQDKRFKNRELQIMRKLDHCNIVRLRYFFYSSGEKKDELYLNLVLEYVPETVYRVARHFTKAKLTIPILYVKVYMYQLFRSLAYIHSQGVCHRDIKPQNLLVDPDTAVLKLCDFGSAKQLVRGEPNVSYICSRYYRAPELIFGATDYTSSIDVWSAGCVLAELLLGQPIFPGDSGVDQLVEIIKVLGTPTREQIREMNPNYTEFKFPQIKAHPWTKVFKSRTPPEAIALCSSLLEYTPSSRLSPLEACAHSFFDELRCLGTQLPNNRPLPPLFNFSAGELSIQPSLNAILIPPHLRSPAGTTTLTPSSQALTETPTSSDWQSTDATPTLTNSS
The test system of test [20] is HEK293. Put plainly: cells. Particulars: Homo sapiens. Format: functional, cell-based.
For test [21], the system named is HEK293. As to the kind of experiment: cells. Format: functional, cell-based. Conditions: Homo sapiens. This is another data set of the same source.
Test [22] has as its system INS1. As to the kind of experiment: beta cell apoptosis inhibitors, cytokine rescue, dose response, luminescence, retest (AID 449756).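 Note: cell death triggered by IL-1 beta plus TNF-alpha plus IFN-gamma mixture; protective hits raise ATP signal compared with cytokine alone wells.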 Type of test: functional, cell-based. Particulars: Rattus norvegicus.
Test [23] has as its target T3, COUP transcription factor 2 (Homo sapiens, UniProt P24468).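 Note: HEK293 cells transiently cotransfected with COUP-TFII expression vector and reporter; luciferase reporter luminescence driven by COUP-TFII from the pX2-168 reporter plasmid.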
T3 sequence (P24468 whole entry): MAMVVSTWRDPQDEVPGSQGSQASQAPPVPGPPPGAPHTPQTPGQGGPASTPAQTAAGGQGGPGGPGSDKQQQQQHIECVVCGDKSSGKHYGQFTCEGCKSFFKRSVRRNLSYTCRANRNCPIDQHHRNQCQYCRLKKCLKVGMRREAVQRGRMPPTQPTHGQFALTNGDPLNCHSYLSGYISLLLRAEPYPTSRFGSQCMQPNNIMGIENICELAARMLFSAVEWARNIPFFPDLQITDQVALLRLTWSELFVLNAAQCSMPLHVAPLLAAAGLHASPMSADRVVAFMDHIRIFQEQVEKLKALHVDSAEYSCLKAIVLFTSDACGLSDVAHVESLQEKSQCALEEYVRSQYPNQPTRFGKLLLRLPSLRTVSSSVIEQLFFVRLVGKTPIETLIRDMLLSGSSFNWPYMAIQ
As to the kind of experiment: Luminescence-based cell-based high throughput dose response assay to identify inhibitors of COUP-TFII (NR2F2). Type of test: functional.

Test [24] deals with Jurkat. As to the kind of experiment: antigen receptor-induced NF-kB inhibitors, dose response, Jurkat, luciferase reporter, luminescence, B- and T-cell (AID 489004).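 Note: NF-kB luciferase reporter Jurkat cells stimulated with PMA plus ionomycin.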 Format: functional, cell-based. Particulars: Homo sapiens.
Test [25] relates to HEK293. Put plainly: cells. Format: functional, cell-based. Conditions: Homo sapiens. This is another data set of the same source.
Test [26] is described as follows: cytotoxicity in HEK-293T NF-kB-Luc cells, dose response, cytotoxicity control for B/T-cell NF-kB inhibitor project, cell-based, uHTS hits (AID 489019).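 Note: IC50 reflects cytotoxicity as loss of cell viability.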 Format: functional.
Test [27] deals with HEK293. As to the kind of experiment: NOD1 signaling inhibitors, primary screen, cell-based, luminescence, uHTS (AID 1578). Conditions: Homo sapiens. Type of test: functional.
Test [28] deals with HEK293. Put plainly: NOD2 signaling inhibitors in MDP-stimulated cells, cell-based, uHTS, luminescence (AID 2001). Type of test: functional. Conditions: Homo sapiens.
The target of test [29] is Nucleotide-binding oligomerization domain-containing protein 2 (Homo sapiens, UniProt Q9HC29). Put plainly: NOD2 signaling inhibitors, cell-based, luminescence, uHTS, HEK293 (AID 1566). Type of test: functional.
Nucleotide-binding oligomerization domain-containing protein 2, sequence (Q9HC29 whole entry, the tested form may be a part): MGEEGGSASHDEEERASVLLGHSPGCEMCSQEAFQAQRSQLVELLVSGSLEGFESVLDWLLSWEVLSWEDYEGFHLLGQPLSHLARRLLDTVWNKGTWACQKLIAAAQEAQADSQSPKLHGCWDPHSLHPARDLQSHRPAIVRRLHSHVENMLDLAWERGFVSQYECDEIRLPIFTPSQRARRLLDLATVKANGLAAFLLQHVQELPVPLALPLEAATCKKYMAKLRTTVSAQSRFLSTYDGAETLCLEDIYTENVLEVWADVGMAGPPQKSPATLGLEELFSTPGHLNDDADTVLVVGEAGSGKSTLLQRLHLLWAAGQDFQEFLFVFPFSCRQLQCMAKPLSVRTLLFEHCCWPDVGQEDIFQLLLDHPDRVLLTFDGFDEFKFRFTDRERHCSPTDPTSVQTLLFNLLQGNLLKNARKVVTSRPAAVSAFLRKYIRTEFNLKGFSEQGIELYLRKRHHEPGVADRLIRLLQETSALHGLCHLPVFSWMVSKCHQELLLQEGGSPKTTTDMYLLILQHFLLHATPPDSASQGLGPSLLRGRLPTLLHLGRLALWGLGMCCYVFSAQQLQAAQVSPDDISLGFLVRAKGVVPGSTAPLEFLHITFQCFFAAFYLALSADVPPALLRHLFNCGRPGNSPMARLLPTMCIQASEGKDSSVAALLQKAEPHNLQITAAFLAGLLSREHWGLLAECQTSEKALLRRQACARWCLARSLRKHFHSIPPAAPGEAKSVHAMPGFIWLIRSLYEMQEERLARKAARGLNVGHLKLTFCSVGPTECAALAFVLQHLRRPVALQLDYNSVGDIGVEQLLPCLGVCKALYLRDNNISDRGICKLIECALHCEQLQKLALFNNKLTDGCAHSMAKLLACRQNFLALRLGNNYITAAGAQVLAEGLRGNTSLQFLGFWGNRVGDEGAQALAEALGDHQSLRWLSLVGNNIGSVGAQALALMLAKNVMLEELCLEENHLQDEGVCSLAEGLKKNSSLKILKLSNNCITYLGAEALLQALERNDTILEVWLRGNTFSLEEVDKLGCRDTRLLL
Test [30] relates to HEK293. Put plainly: SAR Analysis of small molecule inhibitors of T-cell specific antigen receptor-induced NF-kB activation in a HEK-293T cell line using a luminescence assay - Set 2. [Related pubchem assays (depositor defined):AID435003, AID435012, AID489026]. Particulars: Homo sapiens. Type of test: functional, cell-based.
For test [31], the system named is Jurkat. As to the kind of experiment: SAR Analysis of small molecule inhibitors of T-cell specific antigen receptor-induced NF-kB activation in a Jurkat cell line using a luminescence assay - Set 2. [Related pubchem assays (depositor defined):AID435003, AID435012, AID465]. Format: functional, cell-based. Conditions: Homo sapiens.
Test [32] concerns HEK293. As to the kind of experiment: cytotoxicity in HEK293T NF-kB-Luc cells, SAR follow-up, cytotoxicity control for NF-kB activator project, cell-based, resazurin fluorescence (AID 493251). Conditions: Homo sapiens. Format: functional.
Test [33] concerns Candida albicans. Put plainly: growth inhibition of resistant C. albicans, dose response, CaCi-8 strain, fluconazole, dry powder, set 4 (AID 488950). Format: functional, organism-based.
The subject of test [34] is Candida albicans. As to the kind of experiment: growth inhibition of azole-resistant C. albicans, dose response, CaCi-8 strain, Alamar Blue, dry powder, set 2 (AID 488909). Format: functional, organism-based.
Test [35] relates to Candida albicans. Put plainly: fluconazole resistance reversal in C. albicans, dose response, CaCi-2 strain, Alamar Blue, dry powder, set 4 (AID 488943). Type of test: functional, organism-based.
Test [36] concerns Candida albicans. As to the kind of experiment: C. albicans growth inhibition with fluconazole, dose response, antifungal resistance reversal project, CaCi-2 strain, Alamar Blue, dry powder, set 2 (AID 488930). Format: functional, organism-based.

Beta-galactosidase, sequence (Q8VNN2 whole entry): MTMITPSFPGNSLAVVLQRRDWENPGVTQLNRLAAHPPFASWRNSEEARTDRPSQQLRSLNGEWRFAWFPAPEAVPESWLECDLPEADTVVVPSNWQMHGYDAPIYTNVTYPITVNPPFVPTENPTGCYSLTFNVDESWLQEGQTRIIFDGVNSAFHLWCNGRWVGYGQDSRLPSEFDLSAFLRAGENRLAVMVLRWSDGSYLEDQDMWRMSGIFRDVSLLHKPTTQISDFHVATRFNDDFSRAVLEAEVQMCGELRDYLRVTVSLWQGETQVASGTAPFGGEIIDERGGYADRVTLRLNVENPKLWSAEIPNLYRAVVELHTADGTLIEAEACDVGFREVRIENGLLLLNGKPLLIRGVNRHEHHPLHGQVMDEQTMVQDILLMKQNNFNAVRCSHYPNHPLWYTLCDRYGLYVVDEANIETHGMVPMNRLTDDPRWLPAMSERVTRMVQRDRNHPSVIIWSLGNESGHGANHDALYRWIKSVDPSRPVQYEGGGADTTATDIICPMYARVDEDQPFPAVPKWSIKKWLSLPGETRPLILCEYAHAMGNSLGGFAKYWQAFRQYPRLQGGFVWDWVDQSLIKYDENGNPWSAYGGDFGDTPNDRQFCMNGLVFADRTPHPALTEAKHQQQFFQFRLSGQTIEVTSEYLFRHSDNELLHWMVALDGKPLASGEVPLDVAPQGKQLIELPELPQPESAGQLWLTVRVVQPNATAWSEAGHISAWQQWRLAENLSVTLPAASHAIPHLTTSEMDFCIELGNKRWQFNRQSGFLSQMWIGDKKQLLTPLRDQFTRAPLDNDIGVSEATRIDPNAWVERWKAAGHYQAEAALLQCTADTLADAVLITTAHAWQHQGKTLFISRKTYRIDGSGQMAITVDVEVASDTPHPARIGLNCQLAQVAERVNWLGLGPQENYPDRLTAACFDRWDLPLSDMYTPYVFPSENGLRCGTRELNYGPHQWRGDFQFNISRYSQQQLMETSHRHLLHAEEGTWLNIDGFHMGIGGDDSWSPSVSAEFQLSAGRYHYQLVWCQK
Nonstructural protein 1, sequence (Q194T2 whole entry): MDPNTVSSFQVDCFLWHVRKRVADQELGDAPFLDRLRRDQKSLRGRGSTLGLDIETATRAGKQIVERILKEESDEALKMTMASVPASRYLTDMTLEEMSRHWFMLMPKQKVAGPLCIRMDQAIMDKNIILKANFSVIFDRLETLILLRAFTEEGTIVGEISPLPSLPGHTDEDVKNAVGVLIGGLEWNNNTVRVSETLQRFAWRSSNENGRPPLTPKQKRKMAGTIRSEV

Consider `COc1ccc(-c2cc3c(nn2)-c2ccccc2C3=O)cc1`, for which the EC50 in test [1] is > 40 µM (inactive); in [6] it was 375 nM (inconclusive); in test [7], > 60 µM (not active); in test [8], 384 nM (active); in test [9], 6.87 µM (active). Besides, the AC50 was 4.41 µM (active) in test [2]; 29.2 µM (active) in test [4]; 15.8 µM (active) in test [5]; 23.4 µM (active) in test [10]; 4.22 µM (active) in [11]; 20.2 µM (active) in [12]. The AC50 in test [13] was 5.11 µM (active). In [3], the IC50 was 6.98 µM (active).

Consider `CC(C)c1cc(C(=O)NCc2ccco2)no1`, for which, in [14], the AC50 was 46.2 µM (active).

On to `CN(C)c1cccc2c(C=C(C#N)C#N)ccc(N(C)C)c12`, for which the IC50 was > 100 µM (active) in test [15], 15.9 µM (active) in [16] and 22.6 µM (active) in test [17].

For the molecule `Nc1nc(NCCCN2CCOCC2)nc(Nc2cccc(F)c2)c1[N+](=O)[O-]`, the AC50 is 208 nM (active) in [18] and 698 nM (active) in test [19].

In the case of `O=S(=O)(NCC1CCCO1)c1ccc(-c2ccc(S(=O)(=O)NCC3CCCO3)cc2)cc1` (stereo unspecified), the IC50 was 19.9 µM (active) in test [20]; 5.37 µM (active) in [21]; 2.02 µM (active) in [23]; > 80 µM (inactive) in [24]; > 20 µM (inactive) in [25]; > 80 µM (inactive) in test [26]. The IC50 in test [28] is 9.07 µM (active). Moreover, the AC50 in test [22] is 3.25 µM (active). Moreover, the EC50 in test [27] was 1.65 µM (active); in [29], > 20 µM (inactive).

For the molecule `COc1ccc(C(=O)Nc2ccc(NC(=O)c3cc4ccccc4o3)cc2)cc1Cl`, the IC50 in test [30] is > 80 µM (inactive); in test [31], > 79 µM (inactive); in [32] it was > 80 µM (inactive).

For `O=C(c1ccc(Cl)cc1)C1CCN(c2ccnc3cc(Cl)ccc23)CC1`, the AC50 in test [33] was 579 nM (active); in test [34], 3.81 µM (active); in test [35], 342 nM (active); in test [36], 663 nM (active).
